Drawing on patent US12479830B2, “Homopiperazinyl and homopiperidinyl quinazolin-4(3H)-one derivatives having multimodal activity against pain” (ESTEVE PHARMACEUTICALS, S.A., priority 2019, dated 2025), this text covers Ki for 24 compounds.

One experiment deals with T1, Human σ1 receptor (Homo sapiens, UniProt Q99720).
T1 construct: expressed in transfected cells; host or cells: HEK-293
Briefly: Human σ1 receptor radioligand assay ([3H](+)-pentazocine binding). To be noted: binding to the σ1 receptor, expressed as Ki class; + also covers inhibition between 1% and 50%. In short, it runs like this:
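Ki was derived from five test concentrations, or % inhibition was measured at a single 1 or 10 μM dose, against 5 nM [3H](+)-pentazocine. Incubation was 120 min at 37° C in 50 mM Tris-HCl pH 8 with 7 μg HEK-293 membranes, and 10 μM haloperidol set non-specific binding. Bound radioactivity was counted after filtration.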

Experiment [1] has as its target Human α2δ-1 subunit of Cav2.2 calcium channel (Homo sapiens, UniProt P54289). Briefly: Human α2δ-1 subunit of Cav2.2 calcium channel assay ([3H]-gabapentin binding). To be noted: binding to the α2δ-1 subunit of voltage-gated calcium channels, expressed as Ki class; + also covers inhibition between 1% and 50%. In short, it runs like this: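 Affinity (Ki, five concentrations) or % inhibition at 1 or 10 μM, from displacement of 15 nM [3H]-gabapentin on human α2δ-1 membranes. Incubation 60 min, 27° C., Hepes-KOH 10 mM pH 7.4; 10 μM pregabalin defined non-specific binding; bound radioactivity counted after GF/C filtration.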

T1 sequence (Q99720 whole entry): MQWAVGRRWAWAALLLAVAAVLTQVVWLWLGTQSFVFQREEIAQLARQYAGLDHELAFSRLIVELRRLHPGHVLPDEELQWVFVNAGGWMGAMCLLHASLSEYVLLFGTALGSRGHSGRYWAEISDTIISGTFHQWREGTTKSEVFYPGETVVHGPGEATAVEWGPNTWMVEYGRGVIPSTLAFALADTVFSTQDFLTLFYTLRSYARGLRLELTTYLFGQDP
Human α2δ-1 subunit of Cav2.2 calcium channel, sequence (P54289 25-1103): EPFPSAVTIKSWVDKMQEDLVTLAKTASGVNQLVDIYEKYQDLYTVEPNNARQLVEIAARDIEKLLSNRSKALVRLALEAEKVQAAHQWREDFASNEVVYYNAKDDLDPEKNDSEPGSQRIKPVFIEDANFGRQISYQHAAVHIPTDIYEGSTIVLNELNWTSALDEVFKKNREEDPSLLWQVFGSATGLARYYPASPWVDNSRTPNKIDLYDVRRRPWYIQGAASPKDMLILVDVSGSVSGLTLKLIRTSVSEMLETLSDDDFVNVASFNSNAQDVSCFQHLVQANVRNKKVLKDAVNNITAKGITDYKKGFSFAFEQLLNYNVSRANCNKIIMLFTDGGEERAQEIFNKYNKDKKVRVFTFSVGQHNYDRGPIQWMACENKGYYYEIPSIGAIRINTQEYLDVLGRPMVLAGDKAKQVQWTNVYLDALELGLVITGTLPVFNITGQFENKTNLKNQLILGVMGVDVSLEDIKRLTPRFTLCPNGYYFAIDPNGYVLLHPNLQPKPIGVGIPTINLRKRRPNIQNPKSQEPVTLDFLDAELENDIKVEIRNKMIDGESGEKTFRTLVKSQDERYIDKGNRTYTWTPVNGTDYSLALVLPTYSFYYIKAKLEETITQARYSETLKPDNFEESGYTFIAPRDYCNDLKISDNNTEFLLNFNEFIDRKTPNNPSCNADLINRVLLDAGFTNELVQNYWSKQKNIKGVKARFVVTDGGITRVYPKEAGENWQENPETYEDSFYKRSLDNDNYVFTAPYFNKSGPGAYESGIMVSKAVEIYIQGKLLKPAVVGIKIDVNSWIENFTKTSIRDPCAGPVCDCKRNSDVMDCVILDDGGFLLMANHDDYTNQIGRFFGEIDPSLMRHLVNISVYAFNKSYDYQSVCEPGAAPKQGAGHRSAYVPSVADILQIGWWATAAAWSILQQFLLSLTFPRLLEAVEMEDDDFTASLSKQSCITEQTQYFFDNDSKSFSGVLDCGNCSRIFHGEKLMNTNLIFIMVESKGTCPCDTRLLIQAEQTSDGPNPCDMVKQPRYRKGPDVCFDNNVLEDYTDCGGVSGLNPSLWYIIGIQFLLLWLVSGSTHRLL

On to `CCC[C@H](c1nc2cc(F)c(OC)cc2c(=O)n1CC)N1CCN(C)C[C@H](C)C1` [Example 238, 2-((R)-1-((S)-4,6-dimethyl-1,4-diazepan-1-yl)butyl)-3-ethyl-7-fluoro-6-methoxyquinazolin-4(3H)-one], for which the Ki (as a rule, the equilibrium dissociation constant of an inhibitor or competing ligand from its target) on Human σ1 receptor is 0.5 to 1 µM; in experiment [1], under 0.5 µM.
In the case of `CCC[C@H](c1nc2ccc(F)c(F)c2c(=O)n1CC)N1CCN[C@H](C)CC1` [Example 239, 3-ethyl-5,6-difluoro-2-((R)-1-((R)-5-methyl-1,4-diazepan-1-yl)butyl)quinazolin-4(3H)-one], the figures for the Ki (on Human σ1 receptor; in experiment [1]) were over 1 µM and over 5 µM, respectively.
As to `CCC[C@H](c1nc2ccc(F)c(F)c2c(=O)n1CC)N1CCN[C@@H](C)CC1` [Example 240, 3-ethyl-5,6-difluoro-2-((R)-1-((S)-5-methyl-1,4-diazepan-1-yl)butyl)quinazolin-4(3H)-one], the Ki (at Human σ1 receptor; in experiment [1]) was under 0.5 µM throughout.
For the compound `CCC[C@H](c1nc2cc(F)c(F)cc2c(=O)n1CC)N1CCN[C@H](C)CC1` [Example 241, 3-ethyl-6,7-difluoro-2-((R)-1-((R)-5-methyl-1,4-diazepan-1-yl)butyl)quinazolin-4(3H)-one], the Ki was 0.5 to 1 µM at Human σ1 receptor and under 0.5 µM in experiment [1].
In the same order, the values of `CCC[C@H](c1nc2cc(F)c(F)cc2c(=O)n1CC)N1CCN[C@@H](C)CC1` [Example 242, 3-ethyl-6,7-difluoro-2-((R)-1-((S)-5-methyl-1,4-diazepan-1-yl)butyl)quinazolin-4(3H)-one] are under 0.5 µM and under 0.5 µM.
On the same counts, the results for `CCC[C@H](c1nc2cc(F)c(OC)cc2c(=O)n1CC)N1CCNC[C@@H](C)C1` [Example 243, 3-ethyl-7-fluroo-6-methoxy-2-((R)-1-((R)-6-methyl-1,4-diazepan-1-yl)butyl)quinazolin-4(3H)-one] are over 1 µM and under 0.5 µM.
On the same counts, the results for `CCC[C@H](c1nc2cc(F)c(OC)cc2c(=O)n1CC)N1CCNC[C@H](C)C1` [Example 244, 3-ethyl-7-fluoro-6-methoxy-2-((R)-1-((S)-6-methyl-1,4-diazepan-1-yl)butyl)quinazolin-4(3H)-one] are over 1 µM and 0.5 to 5 µM.
For the compound `CCC[C@H](c1nc2ccc(Cl)cc2c(=O)n1C)N1CCN[C@H](C)CC1` [Example 245, 6-chloro-3-methyl-2-((R)-1-((R)-5-methyl-1,4-diazepan-1-yl)butyl)quinazolin-4(3H)-one], the inhibitory constant (Ki) at Human σ1 receptor is 0.5 to 1 µM; in experiment [1] it was over 5 µM.
On the same counts, the results for `CCC[C@H](c1nc2ccc(Cl)cc2c(=O)n1C)N1CCN[C@@H](C)CC1` [Example 246, 6-chloro-3-methyl-2-((R)-1-((S)-5-methyl-1,4-diazepan-1-yl)butyl)quinazolin-4(3H)-one] are under 0.5 µM and 0.5 to 5 µM.
In the same order, the values of `CCC[C@H](c1nc2c(F)cc(F)cc2c(=O)n1CC)N1CCCN(C)CC1` [Example 247, (R)-3-ethyl-6,8-difluoro-2-(1-(4-methyl-1,4-diazepan-1-yl)butyl)quinazolin-4(3H)-one] are 0.5 to 1 µM and under 0.5 µM.
On the same counts, the results for `CCC[C@H](c1nc2c(F)cccc2c(=O)n1CC)N1CCCN(C)CC1` [Example 248, (R)-3-ethyl-8-fluoro-2-(1-(4-methyl-1,4-diazepan-1-yl)butyl)quinazolin-4(3H)-one] are over 1 µM and under 0.5 µM.
For the compound `CCC[C@H](c1nc2ccc(OC(F)(F)F)cc2c(=O)n1CC)N1CCCN(C)CC1` [Example 249, (R)-3-ethyl-2-(1-(4-methyl-1,4-diazepan-1-yl)butyl)-6-(trifluoromethoxy)quinazolin-4(3H)-one], the results for the inhibition constant (Ki) (at Human σ1 receptor; in experiment [1]) were 0.5 to 1 µM and under 0.5 µM, respectively.
With `CCC[C@H](c1nc2c(F)cc(F)cc2c(=O)n1CC)N1CCN[C@H](C)CC1` [Example 250, 3-ethyl-6,8-difluoro-2-((R)-1-((R)-5-methyl-1,4-diazepan-1-yl)butyl)quinazolin-4(3H)-one], the inhibition constant Ki at Human σ1 receptor was over 1 µM; in experiment [1], over 5 µM.
In the same order, the values of `CCC[C@H](c1nc2c(F)cc(F)cc2c(=O)n1CC)N1CCN[C@@H](C)CC1` [Example 251, 3-ethyl-6,8-difluoro-2-((R)-1-((S)-5-methyl-1,4-diazepan-1-yl)butyl)quinazolin-4(3H)-one] are under 0.5 µM and 0.5 to 5 µM.
For `CCC[C@H](c1nc2ccc(C(F)(F)F)cc2c(=O)n1CC)N1CCCN(C)CC1` [Example 252, (R)-3-ethyl-2-(1-(4-methyl-1,4-diazepan-1-yl)butyl)-6-(trifluoromethyl)quinazolin-4(3H)-one], the inhibitory constant (Ki) (on Human σ1 receptor; in experiment [1]) was under 0.5 µM in each case.
Regarding `CCC[C@H](c1nc2ccc(F)cc2c(=O)n1CC)N1CCCNC(C)(C)C1` [Example 253], the inhibitory constant (Ki) was 0.5 to 1 µM at Human σ1 receptor and over 5 µM in experiment [1].
In the same order, the values of `CCC[C@H](c1nc2ccc(Cl)cc2c(=O)n1C)N1CC[C@H](C)N(C)CC1` [Example 254, 6-chloro-2-((R)-1-((S)-4,5-dimethyl-1,4-diazepan-1-yl)butyl)-3-methylquinazolin-4(3H)-one] are under 0.5 µM and over 5 µM.
In the same order, the values of `CCC[C@H](c1nc2ccc(F)cc2c(=O)n1C)N1CCN[C@H](C)CC1` [Example 255, 6-fluoro-3-methyl-2-((R)-1-((R)-5-methyl-1,4-diazepan-1-yl)butyl)quinazolin-4(3H)-one] are over 1 µM and over 5 µM.
In the same order, the values of `CCC[C@H](c1nc2ccc(F)cc2c(=O)n1C)N1CCN[C@@H](C)CC1` [Example 256, 6-fluoro-3-methyl-2-((R)-1-((S)-5-methyl-1,4-diazepan-1-yl)butyl)quinazolin-4(3H)-one] are under 0.5 µM and 0.5 to 5 µM.
Consider `CCC[C@H](c1nc2ccc(Cl)cc2c(=O)n1C)N1CC[C@@H](C)N(C)CC1` [Example 257, 6-chloro-2-((R)-1-((R)-4,5-dimethyl-1,4-diazepan-1-yl)butyl)-3-mehtylquinazolin-4(3H)-one], for which the inhibitory constant (Ki) is under 0.5 µM on Human σ1 receptor and over 5 µM in experiment [1].
As to `CCC[C@H](c1nc2ccc(C(F)(F)F)cc2c(=O)n1CC)N1CCN[C@H](C)CC1` [Example 258, 3-ethyl-2-((R)-1-((R)-5-methyl-1,4-diazepan-1-yl)butyl)-6-(trifluoromethyl)quinazolin-4(3H)-one], the results for the inhibition constant (Ki) (on Human σ1 receptor; in experiment [1]) were under 0.5 µM and 0.5 to 5 µM, respectively.
On the same counts, the results for `CCC[C@H](c1nc2ccc(C(F)(F)F)cc2c(=O)n1CC)N1CCN[C@@H](C)CC1` [Example 259, 3-ethyl-2-((R)-1-((S)-5-methyl-1,4-diazepan-1-yl)butyl)-6-(trifluoromethyl)quinazolin-4(3H)-one] are under 0.5 µM and under 0.5 µM.
For `CCC[C@H](c1nc2cc(F)c(F)cc2c(=O)n1CC)N1CCCN[C@@H](C)C1` [Example 260, 3-ethyl-6,7-difluoro-2-((R)-1-((S)-3-methyl-1,4-diazepan-1-yl)butyl)quinazolin-4(3H)-one], the Ki is over 1 µM at Human σ1 receptor and under 0.5 µM in experiment [1].
On the same counts, the results for `CCC[C@H](c1nc2cc(F)c(F)cc2c(=O)n1CC)N1CCCN[C@H](C)C1` [Example 261, 3-ethyl-6,7-difluoro-2-((R)-1-((R)-3-methyl-1,4-diazepan-1-yl)butyl)quinazolin-4(3H)-one] are over 1 µM and under 0.5 µM.
